Experimental data reported in patent US20130345266A1, “PEST CONTROL COMPOSITION AND PEST CONTROL METHOD” (SUMITOMO CHEMICAL COMPANY, LIMITED, priority 2011, published 2013).

Tested on: common mosquito (Culex pipiens pallens)
Test: Test Example 2: knock down test, forced contact with treated glass petri dish
Format: in vivo
Conditions: 5 minutes after release, ten female adults, 3 min contact
Procedure: Acetone-diluted solutions were prepared so that predetermined dosage of the Guanidine Compound and the ester compound B on glass plates indicated in Table 1 would be applied. The acetone-diluted solutions (0.5 ml) were treated on the underside of glass petri dishes with a diameter of 7 cm uniformly and air-dried. Ten female adults of common mosquito (Culex pipiens pallens) were collected by means of a pocket aspirator and placed into the petri dish, then contacted compulsorily with the treated underside of glass petri dishes by covering with a lucid plate made of polyvinyl chloride.
Three minutes after covering, said common mosquitoes were released in nyron cage (size: 16.5 cm×15.5 cm×22 cm). At a given period of time after releasing, the number of knocked down insects was counted and a knock down rate was calculated.

SMILES	Knock down rate (%) after 5 minutes (Guanidine Compound alone 0.000125 mg/plate)	Knock down rate (%) after 5 minutes (Guanidine Compound alone 0.00025 mg/plate)	Knock down rate (%) after 5 minutes (Guanidine Compound alone 0.0005 mg/plate)	Knock down rate (%) after 5 minutes (Guanidine Compound alone 0.00125 mg/plate)	Knock down rate (%) after 5 minutes (ester compound B alone 0.000125 mg/plate)	Knock down rate (%) after 5 minutes (ester compound B alone 0.00025 mg/plate)
CN/C(=N\[N+](=O)[O-])NCc1cnc(Cl)s1 [reference 1, (E)-1-(2-chloro-1,3-thiazol-5-ylmethyl)-3-methyl-2-nitroguanidine]	10%	10%	10%	20%		
C/C=C\[C@@H]1[C@@H](C(=O)OCc2c(F)c(F)c(COC)c(F)c2F)C1(C)C (relative stereo) [reference 4, 2,3,5,6-tetrafluoro-4-methoxymethylbenzyl=(1R)-trans-3-(1-propenyl(Z))-2,2-dimethylcyclopropanecarboxylate]					10%	20%
